The source of these data is patent US12270041B2, “ROP—deficient plants having high water use efficiency” (RAMOT AT TEL-AVIV UNIVERSITY LTD., priority 2019, dated 2025).

Assay [1] has as its system ROS levels in guard cells. The assay is described as follows: ROS measurements in guard cells (H2DCF fluorescence). Format: cell-based, Tomato (S. lycopersicum). On the procedure: Reactive oxygen species (ROS) levels in guard cells were monitored using a fluorescence-based assay with 2′,7′-dichlorofluorescien diacetate (H2DCF-DA). Abaxial epidermises of cotyledons were mounted on microscope slides with medical adhesive Telesis V and loaded with stomatal opening buffer with 50 μM H2DCF-DA for 30 min. Excess H2DCF-DA was removed by washing with water, and samples were loaded with 0.1% ethanol (mock) or 10 μM ABA in opening buffer. After 15 min, fluorescence images were collected using a Zeiss-LSM 780 NLO confocal microscope. Fluorescence measured from about thirty stomata of each biological replicate was determined using Image J.

Assay [2] deals with stomata of M82 and rop9 mutant cotyledons. The assay is described as follows: Measurements of stomata aperture (width/length) in excised cotyledons. Format: cell-based, Tomato (S. lycopersicum). On the procedure:
[…] assays were carried out as previously described (Puli, M. R. et al., J Exp Bot 63, 1349-1356, 2012). with the following modifications. Cotyledons were excised from M82 or rop9 mutants (10-15 days after sowing in soil) and were transferred immediately to stomatal opening buffer (10 mM MES-KOH, pH 7.0, 50 mM KCl) with or without ABA and treated for 3 h under light (110 to 120 μE m^−2 s^−1). Mock-treated controls were treated with 0.1% vol/vol ethanol. After 3 h, the abaxial epidermis of cotyledons was affixed to a glass slide with Telesis 5 silicone adhesive (Premiere Products) and bright-field images were taken with a Zeiss-LSM 780 NLO confocal microscope. For each biological replicate, width and length of 30 to 40 stomatal apertures were measured using Image J.

The subject of a further assay is M82 seeds. In words: Seed germination assay on ABA-supplemented medium. The assay is classed as in vivo, Tomato (S. lycopersicum). Conditions: 5 μM ABA, seven days. On the procedure:
Seeds of M82 and rop9 mutant plants (50 seeds per genotype) were surface sterilized for 2 min in ethanol followed by 20 min in 3% sodium hypochlorite, washed with excess of water (˜100 ml) and sown on 0.5×MS+1% agar plates (without sucrose) supplemented with 0.1% ethanol (mock) or 1 or 5 μM ABA (in 0.1% ethanol). Seeds were kept at 4° C. for 48 h for […] and moved to 25° C. in the dark for germination. The percentage of seeds germinated were determined after seven days.

For assay [3], the system named is M82 and rop9 mutant seedlings. The assay is described as follows: Primary root elongation assay. Conditions: 1 or 5 μM ABA, 48 h. Format: in vivo, Tomato (S. lycopersicum). As for the experimental part:
Seven-day-old M82 and rop9 mutant seedlings were transferred to 0.5×MS+1% agar plates (without sucrose) supplemented with 0.1% ethanol (mock) or 1 or 5 μM ABA in 0.1% ethanol, and root lengths were marked. Root elongation was measured after 48 h.

Assay [4] relates to ROP activity in guard cells. In words: Distribution of GFP-ICR1ΔN ROP activity probe in guard cells. Format: cell-based. As to conditions: Arabidopsis guard cells, 10 μM ABA, one hour. As for the experimental part: Expression of GFP-ICR1ΔN was induced in 7-days old Arabidopsis seedlings with 5 μM β-estradiol dissolved in 99.5% DMSO. After 24 h of induction plants were treated with control (0.5× Murashige Skoog (MS) medium supplemented with 0.1% ETOH (control) or with 10 μM ABA dissolved in 0.1% ETOH. Analysis of GFP-ICR1ΔN distribution was carried out 1 h after treatments with control or ABA supplemented media using Zeiss LSM 780-NLO confocal microscope by excitation at 488 nm and emission spectrum at 501-546 nm using 40× and 63× water objectives. Image analyses were performed with ZEN 2012 Digital Imaging and Image J.
To follow the regulation of ROP activity in guard cells a fluorescent probe which is specifically expressed in guard cells was generated. The probe consists GFP fused to the […] C-terminal residues of ROP effector ICR1 (between residues 171-344) and was designated GFP-ICRΔN. […] To prevent possible steric hindrance of the ICRΔN moiety by GFP, a flexible linker consisting of 3 repeats of (Gly)4Ser (3×GGGGS) sequence were cloned between the ICRΔN and the GFP moieties. To prevent negative effects that could occur due to long-term expression of a ROP effector, the expression of the probe was induced by estradiol under regulation of the ROP11 promoter. […] The distribution of the probe between the membrane and cytoplasm reflected the degree of ROP activation. […]

The test system of assay [5] is P5CS1 and RAB18 expression. In words: QPCR of ABA-responsive genes. The assay is classed as cell-based, Tomato (S. lycopersicum). As to conditions: M82, rop9-1 and rop9-4 cotyledons, 50 μM ABA. On the procedure: For expression of ABA induced genes, total RNA was extracted from mock-treated or ABA-treated cotyledons or from 2- to 3-week-old soil-grown plants using the RNeasy Plant Mini Kit (Qiagen). cDNAs were prepared using the High-capacity cDNA Reverse Transcription Kit (Applied Biosystems). Oligonucleotide primers for tubulin, P5CS1, and RAB18 were identical to those used by Nir et al. (2017, ibid). Expression was normalized to tubulin. Gene expression of the M82 mock-treated samples was set to 1, and then remaining samples were calculated proportionately. Data are the means (±SE) of three independent biological replicates.

Molecules are shown by their SMILES.

Consider `c1ccc2c(c1)[I+]c1ccccc1-2` [DPI, Diphenyleneiodonium chloride], for which the H2DCF signal entry in assay [1] (rop9-1 and rop9-4 guard cells treated with ABA, 5 μM DPI) was “decreased the H2DCF signal”. In addition, the “stomata aperture (width/length)” value is “had no effect” in assay [2] (M82 stomata, 5 μM DPI); “induced opening” in assay [2] (rop9-1 and rop9-4 stomata, 5 μM DPI).

In the case of `CC1=CC(=O)CC(C)(C)[C@@]1(O)/C=C/C(C)=C\C(=O)O` [ABA, Abscisic acid], the H2DCF signal entry in assay [1] (M82 guard cells, 10 μM ABA, 15 min) is “induced significant enhancement”; in assay [1] (rop9-1 and rop9-4 guard cells, 10 μM ABA, 15 min), “significantly reduced the signal”. For the same compound, the seed germination entry with M82 seeds is on record as “significantly inhibited”. The root elongation result in assay [3] is “inhibited to a similar extent in M82 and the rop9 mutants”. Further, the “distribution of the probe between plasma membrane and cytoplasm” value in assay [4] is listed as “significant shift of the probe from the plasma membrane to the cytoplasm”. For the same compound, the “stomata aperture (width/length)” value in assay [2] (M82, rop9-1 and rop9-4 cells, 10 μM ABA (positive control)) is reported as “expected closing of stomata were observed”; in assay [2] (M82 cotyledons, 1 or 10 μM ABA, 3 h under light) it was “induced stomata closure”. Moreover, the “expression of P5CS1 and RAB18” value in assay [5] is “induced to a similar extent by ABA in both wild-type and mutant leaves”.
